Data published in patent US7285571B2, “Herbal chemical composition for the treatment of cancer” (Council of Scientific and Industrial Research, priority 2001, dated 2007).

How the values were obtained:
Type in all cases: cell-based
MCF-7 = test: In vitro cytotoxicity (SRB), MCF-7; conditions: Homo sapiens, MCF7, MCF-7 (breast), 48-hours, read-out: Percent growth inhibition; for inhibition at 10 µg/mL: 10 μg/ml; for inhibition at 30 µg/mL: 30 μg/ml; for inhibition at 100 µg/mL: 100 μg/ml
Procedure: (§1) The human cancer cell lines were obtained either from National center for cell science, Pune, India or National Cancer Institute, Frederick, Md., U.S.A. Cells were grown in tissue culture flasks in complete growth medium (RPMI-1640 medium with 2 mM glutamine, 100 μg/ml streptomycin, pH 7.4, sterilized by filtration and supplemented with 10% sterilized fetal calf serum and 100 units/ml penicillin before use) at 37° C. in an atmosphere of 5% CO2 and 90% relative humidity in a carbon dioxide incubator (WTB binder, Germany). The cells at subconfluent stage were harvested from the flask by treatment with trypsin (0.05% trypsin in PBS containing 0.02% EDTA) and suspended in complete growth medium. Cells with cell viability of more than 97% by trypan blue exclusion technique were used for determination of cytotoxicity.
(§2) (−)-Matairesinol was dissolved in DMSO (dimethyl sulphoxide) to obtain a stock solution of 20 mg/ml. The stock solution was serially diluted with complete growth medium containing 50 μg/ml of gentamycin to obtain three working test solutions of 200, 60 and 20 μg/ml
(§3) The suspension of human cancer cell lines of required cell density in complete growth medium was prepared and cell suspension ([…] per wall) of each cell line) of 96-well tissue culture plate. Three additional wells of each cell line were also prepared for control. Two blank wells for control and each experimental and each experimental set for every cell line were also included that contained equivalent amount of complete growth medium only. The plates were incubated at 37° C. in an atmosphere of 5% CO2 and 90% relative humidity in a carbon dioxide incubator.
(§4) The working test solutions of (−)-Matairesinol of different concentrations (100 μl) were added after 24-hours incubation in all the wells including blanks of the experimental set. The equivalent amount of complete growth medium was added to control set.
(§5) The plates were further incubated for 48-hours (at 37° C. in an atmosphere of 5% CO2 and 90% relative humidity in a carbon dioxide incubator) after addition of test material etc. and then the cell growth was stopped by gently layering of 50 μl of TCA (50% trichloroacetic acid) on top of the medium in all the wells. The plates were incubated at 4° C. for one hour to fix the cells attached to the bottom of the wells. Liquids of all the wells were gently pipetted out and discarded. The plates were washed five times with distilled water to remove TCA, growth medium, low molecular weight metabolites, serum proteins etc. Plates were air-dried.
(§6) Cell growth was measured by staining with sulforhodamine B dye (SRB). The SRB solution (100 μl of 0.4% in 1% acetic acid) was added to each well and the plates were incubated at room temperature for 30 minutes. The unbound SRB was quickly removed by washing the wells five times with 1-% acetic acid and plates were air-dried. Tris-buffer (100 μl of 0.01 M, pH 10.4) was added to all the wells and plates were gently stirred for 5 minutes on a mechanical stirrer. The optical density was recorded on ELISA reader at 540 run.
(§7) The cell growth in presence of test material was determined by subtracting mean OD value of respective blank from the mean OD value of experimental set. Like wise, cell growth in absence of test material (control set) and in presence of positive control was also determined. The percent cell growth in presence of test material was determined considering the cell growth in absence of test material as 100% and in turn percent inhibition was calculated.

ZR-75-1 = test: In vitro cytotoxicity (SRB), ZR-75-1; conditions: Homo sapiens; ZR-75-1 (breast), 100 μg/ml, 48-hours; read-out: Percent growth inhibition
Procedure: as §1, with “Cells with cell viability of more than 97% by trypan blue exclusion technique were used for determination of cytotoxicity.” left out
(§8) Cell growth was measured by staining with sulforhodamine B dye (SRB). […] The optical density was recorded on ELISA reader at 540 run.
as §7

SiHa = test: In vitro cytotoxicity (SRB), SiHa; conditions: Homo sapiens, SiHa (cervix), 48-hours, read-out: Percent growth inhibition; for inhibition at 10 µg/mL: 10 μg/ml; for inhibition at 30 µg/mL: 30 μg/ml; for inhibition at 100 µg/mL: 100 μg/ml
Procedure: as §1, §2, §3, §4, §5, §6, §7

SKNMC = test: In vitro cytotoxicity (SRB), SKNMC; conditions: Homo sapiens, SK-N-MC; SKNMC (neuroblastoma), 100 μg/ml, 48-hours; read-out: Percent growth inhibition
Procedure: as §1, with “Cells with cell viability of more than 97% by trypan blue exclusion technique were used for determination of cytotoxicity.” left out
as §8, §7

IMR-32 = test: In vitro cytotoxicity (SRB), IMR-32; conditions: Homo sapiens; IMR-32 (neuroblastoma), 100 μg/ml, 48-hours; read-out: Percent growth inhibition
Procedure: as §1, with “Cells with cell viability of more than 97% by trypan blue exclusion technique were used for determination of cytotoxicity.” left out
as §8, §7

Colo-205 = test: In vitro cytotoxicity (SRB), Colo-205; conditions: Homo sapiens, Colo-205 (colon), 48-hours, read-out: Percent growth inhibition; for inhibition at 10 µg/mL: 10 μg/ml; for inhibition at 30 µg/mL: 30 μg/ml; for inhibition at 100 µg/mL: 100 μg/ml
Procedure: as §1, §2, §3, §4, §5, §6, §7

HT-29 = test: In vitro cytotoxicity (SRB), HT-29; conditions: Homo sapiens, HT-29 (colon), 48-hours, read-out: Percent growth inhibition; for inhibition at 30 µg/mL: 30 μg/ml; for inhibition at 100 µg/mL: 100 μg/ml
Procedure: as §1, §2, §3, §4
The plates were further incubated for 48-hours (at 37° C. in an atmosphere of 5% CO2 and 90% relative humidity in a carbon dioxide incubator) after addition of test material etc. and then the cell growth was stopped by gently layering of 50 μl of TCA (50% trichloroacetic acid) on top of the medium in all the wells. […]
as §8, §7

SW-620 = test: In vitro cytotoxicity (SRB), SW-620; conditions: Homo sapiens, SW-620 (colon), 48-hours, read-out: Percent growth inhibition; for inhibition at 30 µg/mL: 30 μg/ml; for inhibition at 100 µg/mL: 100 μg/ml
Procedure: as §1, §2, §3, §4, §5
as §6, with “Tris-buffer (100 μl of 0.01 M, pH 10.4) was added to all the wells and plates were gently stirred for 5 minutes on a mechanical stirrer.” left out
as §7

Hep-2 = test: In vitro cytotoxicity (SRB), Hep-2; conditions: Homo sapiens; Hep-2 (liver), 100 μg/ml, 48-hours; read-out: Percent growth inhibition
Procedure: as §1, with “Cells with cell viability of more than 97% by trypan blue exclusion technique were used for determination of cytotoxicity.” left out
as §8, §7

A-549 = test: In vitro cytotoxicity (SRB), A-549; conditions: Homo sapiens, A549, A-549 (lung), 48-hours, read-out: Percent growth inhibition; for inhibition at 10 µg/mL: 10 μg/ml; for inhibition at 30 µg/mL: 30 μg/ml; for inhibition at 100 µg/mL: 100 μg/ml
Procedure: as §1, §2, §3, §4, §5, §6, §7

cancer cells of breast = test: Growth inhibition of cancer cells of breast; conditions: Homo sapiens; concentration of about 100 μg/ml; MCF-7 and ZR-75-1; read-out: inhibits the growth of cancer cells of breast
Procedure: as §1, with “Cells with cell viability of more than 97% by trypan blue exclusion technique were used for determination of cytotoxicity.” left out
as §8, §7

cancer cells of cervix = test: Growth inhibition of cancer cells of cervix; conditions: Homo sapiens; concentration of about 100 μg/ml; SiHa; read-out: inhibits the growth of cancer cells of cervix
Procedure: as §1, with “Cells with cell viability of more than 97% by trypan blue exclusion technique were used for determination of cytotoxicity.” left out
as §8, §7

[1] = system: cancer cells of neuroblastoma; test: Growth inhibition of cancer cells of neuroblastoma; conditions: Homo sapiens; concentration of about 100 μg/ml; SKNMC and IMR-32; read-out: inhibits the growth of cancer cells of neuroblastoma
Procedure: as §1, with “Cells with cell viability of more than 97% by trypan blue exclusion technique were used for determination of cytotoxicity.” left out
as §8, §7

cancer cells of colon = test: Growth inhibition of cancer cells of colon; conditions: Homo sapiens; concentration of about 100 μg/ml; Colo-205, HT-29 and SW-620; read-out: inhibits the growth of cancer cells of colon
Procedure: as §1, with “Cells with cell viability of more than 97% by trypan blue exclusion technique were used for determination of cytotoxicity.” left out
as §8, §7

cancer cells of liver = test: Growth inhibition of cancer cells of liver; conditions: Homo sapiens; concentration of about 100 μg/ml; Hep-2; read-out: inhibits the growth of cancer cells of liver
Procedure: as §1, with “Cells with cell viability of more than 97% by trypan blue exclusion technique were used for determination of cytotoxicity.” left out
as §8, §7

cancer cells of lung = test: Growth inhibition of cancer cells of lung; conditions: Homo sapiens, A549; concentration of about 100 μg/ml; A-549; read-out: inhibits the growth of cancer cells of lung
Procedure: as §1, with “Cells with cell viability of more than 97% by trypan blue exclusion technique were used for determination of cytotoxicity.” left out
as §8, §7

human cancer cell lines = test: In vitro cytotoxicity against the human cancer cell lines studied (panel); conditions: for inhibition of cell growth of the human cancer cell lines studied (in words): 10, 30 and 100 μg/ml; for inhibition at 100 µg/mL: Homo sapiens, at 100 μg/ml, read-out: inhibition of cell growth, range over the human cancer cell lines studied
Procedure: as §1, §2, §3
The working test solutions of (−)-Matairesinol of different concentrations (100 μl) were added after 24-hours incubation in all the wells including blanks of the experimental set. The equivalent amount of complete growth medium was added to control set. […]
as §8, §7
In vitro cytotoxicity of (−)-matairesinol was determined against human breast (MCF-7 & ZR-75-1), neuroblastoma (SK-N-MC & IMR-32), cervix (SiHa), colon (Colo-205, HT-29 & SW-620), liver (HEP-2) and lung (A-549) cancer cell lines. […]

Compound	inhibition at 10 µg/mL (MCF-7) [%]	inhibition at 30 µg/mL (MCF-7) [%]	inhibition at 100 µg/mL (MCF-7) [%]	inhibition at 100 µg/mL (ZR-75-1) [%]	inhibition at 10 µg/mL (SiHa) [%]	inhibition at 30 µg/mL (SiHa) [%]	inhibition at 100 µg/mL (SiHa) [%]	inhibition at 100 µg/mL (SKNMC) [%]	inhibition at 100 µg/mL (IMR-32) [%]	inhibition at 10 µg/mL (Colo-205) [%]	inhibition at 30 µg/mL (Colo-205) [%]	inhibition at 100 µg/mL (Colo-205) [%]	inhibition at 30 µg/mL (HT-29) [%]	inhibition at 100 µg/mL (HT-29) [%]	inhibition at 30 µg/mL (SW-620) [%]	inhibition at 100 µg/mL (SW-620) [%]	inhibition at 100 µg/mL (Hep-2) [%]	inhibition at 10 µg/mL (A-549) [%]	inhibition at 30 µg/mL (A-549) [%]	inhibition at 100 µg/mL (A-549) [%]	other results
COc1cc(CC2COC(=O)C2(O)Cc2ccc(O)c(OC)c2)ccc1O (stereo in doubt) [(−)-Wikstromol]	7	26	51	37	16	21	37	44	56	5	27	67	6	32	20	50	46	21	37	56	inhibition at 10 µg/mL (SW-620; 10 μg/ml): 14%; inhibition at 100 µg/mL (cancer cells of breast): ≤ 51%; inhibition at 100 µg/mL (cancer cells of cervix): ≤ 37%; inhibition at 100 µg/mL [1]: ≤ 56%; inhibition at 100 µg/mL (cancer cells of colon): ≤ 67%; inhibition at 100 µg/mL (cancer cells of liver): ≤ 46%; inhibition at 100 µg/mL (cancer cells of lung): ≤ 56%; inhibition of cell growth of the human cancer cell lines studied (in words) (human cancer cell lines): dose dependent inhibition of cell growth; inhibition at 100 µg/mL (human cancer cell lines): 32 to 67%
COc1cc(C[C@H]2COC(=O)[C@@H]2Cc2ccc(O)c(OC)c2)ccc1O [(−)-Matairesinol]	10	36	54	62	10	29	63	75	77	15	28	93	10	74	11	68	64	19	33	65	inhibition at 100 µg/mL (cancer cells of breast): ≤ 62%; inhibition at 100 µg/mL (cancer cells of cervix): ≤ 63%; inhibition at 100 µg/mL [1]: ≤ 77%; inhibition at 100 µg/mL (cancer cells of colon): ≤ 93%; inhibition at 100 µg/mL (cancer cells of liver): ≤ 64%; inhibition at 100 µg/mL (cancer cells of lung): ≤ 65%; inhibition of cell growth of the human cancer cell lines studied (in words) (human cancer cell lines): dose dependent inhibition of cell growth; inhibition at 100 µg/mL (human cancer cell lines): 54 to 93%
